# Measured values published in patent publication US20210260051A1, “COMBINATION OF EZH2 INHIBITOR AND CHECKPOINT THERAPY FOR THE TREATMENT OF CANCER” (Board of Regents, The University of Texas System, priority 2018, published 2021).
# Columns and labels:
# [1] = system: EZH2; experiment: EZH2 expression in peripheral CD4 T cells of patients with metastatic prostate cancer; type: in vivo, human; conditions: after three doses vs baseline, FIG. 2C
# Text: (§1) FIGS. 2A-2C: Ipilimumab increases EZH2 expression in T cells. (FIG. 2A) Unsupervised hierarchical cluster analysis of RNA sequencing data from the peripheral CD4 T cells of patients with metastatic melanoma before and after 3 doses of ipilimumab therapy (week 7). (FIG. 2B) Matched pair analysis of EZH2 expression before and after ipilimumab therapy. (FIG. 2C) Ezh2 expression in peripheral CD4 T cells from patients with metastatic prostate cancer at baseline and after 3 doses of ipilimumab therapy. (2 tailed student t test was used to determine significance; **p<0.01).
# (§2) Next, EZH2 expression was confirmed in peripheral CD4 T cells isolated from patients with metastatic prostate cancer at baseline and after three doses of ipilimumab (Subudhi et al., 2016). Like in patients with metastatic melanoma, increased EZH2 expression was found in CD4 T cells following ipilimumab therapy (FIG. 2C) that inversely correlated with prostate-specific antigen progression (FIG. 6). Next, EZH2 expression was evaluated on human CD4 effector T cells (CD4^+CD45RO^−CD45RA^+CCR7^−), regulatory T cells (CD4^+CD25^+FoxP3^+) and CD8 T cells sorted from peripheral blood of at baseline and post-ipilimumab therapy.
# Patient samples. Metastatic melanoma samples were obtained from patients who received ipilimumab as the standard of care. […]
# [2] = system: EZH2; experiment: EZH2 expression in peripheral CD4 T cells of patients with metastatic melanoma (RNA sequencing); type: in vivo, human; conditions: after three doses vs baseline, FIG. 2B
# Text: as §1
# T cell activation by CD28 signaling induces EZH2 expression (DuPage et al., 2015). It was postulated that exaggerated CD28 signaling due to anti-CTLA-4 therapy would increase EZH2 expression in T cells. To test this hypothesis, peripheral CD4 T cells were isolated from patients with metastatic melanoma who received ipilimumab as the first line of therapy for metastatic disease, at baseline and after three doses of ipilimumab therapy.
# Patient samples. […]
# RNA sequencing. […] For bioinformatics analysis, the raw reads were aligned to the mm10 reference genome using TopHat2. HTSeq count was used to count the raw reads that were uniquely mapped to each gene. DESeq2 was then applied to normalize the raw read counts and identify the differentially expressed genes between the groups. […]
# [3] = patients, in combination with other immune checkpoint therapy such as Nivolumab; cited from earlier work
# [4] = system: EZH2; experiment: flow cytometry of EZH2 expression in sorted peripheral T cell subsets before and after ipilimumab; type: in vivo, human; conditions: peripheral blood, post-ipilimumab vs baseline; FIG. 7
# Text: FIG. 7: Flow cytometry analysis of EZH2 expression on CD4^+CD45RO^−CD45RA+CCR7^− (CD4 T effector, Teff), CD4^+CD25^+FoxP3^+ (T regulatory, T-reg) and CD8 T cells derived from peripheral blood mononuclear cells of patients with metastatic melanoma at baseline and after three doses of ipilimumab. Matched pair analysis of Ezh2 expression before and after ipilimumab therapy. Student t-test was used for significance (**p<0.01, *p<0.05).
# as §2, with “Like in patients with metastatic melanoma, increased EZH2 expression was found in CD4 T cells following ipilimumab therapy (FIG. 2C) that inversely correlated with prostate-specific antigen progression (FIG. 6).” left out
# Tissue processing and flow cytometry. […] Staining with intracellular anti-Foxp3 (eBioscience, FJK-16 s), […] (eBioscience, PC61.5), antiKi-67 (eBioscience, SolA15), antiIFN-γ (BioLegend, XMG1.2), anti-TNF-α (BioLegend, MP6-XT22), and anti-EZH2 (Cell Signaling Technology, D2C9) were analyzed by flow cytometry according to the manufacturers’ instructions. Flow cytometry data were acquired on BD LSR II (BD Biosciences) and analyzed using FlowJo software (Tree Star, Ashland, Oreg.).
substance,measurement,setting,value
ipilimumab: a fully human monoclonal immunoglobulin G1 antibody that blocks cytotoxic T lymphocyte associated protein 4,EZH2 expression in CD4 T cells,[1],increased
same,EZH2 expression in peripheral CD4 T cells,[2],increase
same,side effect profile,[3],manageable side effect profile
same,"EZH2 expression in CD4 effector T cells, regulatory T cells and CD8 T cells",[4],increased in all three T cell subtypes
